Like-named read-outs stand apart in the source and are kept apart here.
Test system: patients with advanced TP53 wild-type (WT) leukemias
Excerpt: Patients with Ph+ ALL who show early markers of relapse in MRD surveillance can be considered for inclusion as long as other therapies such as TKIs are exhausted or cannot be given. • Tumor of the patient is TP53 wt characterized by, at a minimum, no mutations in exons 5, 6, 7 and 8, and the p53 status was obtained from a bone-marrow sample, collected no longer than 3 months before signing the main ICF. Safety and Tolerability Profile of Regimen 1B in Hematological Tumors

COc1ncc(-c2nc3c(n2C(C)C)[C@H](c2ccc(Cl)cc2)N(c2cc(Cl)cn(C)c2=O)C3=O)c(OC)n1 [HDM201, (S)-5-(5-Chloro-1-methyl-2-oxo-1,2-dihydro-pyridin-3-yl)-6-(4-chloro-phenyl)-2-(2,4-dimethoxy-pyrimidin-5-yl)-1-isopropyl-5,6-dihydro-1H-pyrrolo[3,4-d]imidazol-4-one]
AE: Haemoglobin Decreased (Regimen 2A N = 7, Grade 3/4): 0 n (%)
AE: Headache (Regimen 2A N = 7, Grade 3/4): 0 n (%)
AE: Hyperbilirubinaemia (Regimen 2A N = 7, Grade 3/4): 0 n (%)
AE: Hyperglycaemia (Regimen 2A N = 7, Grade 3/4): 0 n (%)
AE: Hyperkalaemia (Regimen 2A N = 7, Grade 3/4): 0 n (%)
AE: Hyperphosphataemia (Regimen 2A N = 7, Grade 3/4): 0 n (%)
AE: Hyperuricaemia (Regimen 2A N = 7, Grade 3/4): 0 n (%)
AE: Hypoalbuminaemia (Regimen 2A N = 7, Grade 3/4): 0 n (%)
AE: Hypocalcaemia (Regimen 2A N = 7, Grade 3/4): 0 n (%)
AE: Hypokalaemia (Regimen 2A N = 7, Grade 3/4): 0 n (%)
AE: Hypomagnesaemia (Regimen 2A N = 7, Grade 3/4): 0 n (%)
AE: Hyponatraemia (Regimen 2A N = 7, Grade 3/4): 0 n (%)
AE: Hypophosphataemia (Regimen 2A N = 7, Grade 3/4): 0 n (%)
AE: Hypotension (Regimen 2A N = 7, Grade 3/4): 0 n (%)
AE: Infection (Regimen 2A N = 7, Grade 3/4): 0 n (%)
AE: Infective Glossitis (Regimen 2A N = 7, Grade 3/4): 0 n (%)
AE: Iron Overload (Regimen 2A N = 7, Grade 3/4): 0 n (%)
AE: Leukopenia (Regimen 2A N = 7, Grade 3/4): 0 n (%)
AE: Lip Oedema (Regimen 2A N = 7, Grade 3/4): 0 n (%)
AE: Lipase Increased (Regimen 2A N = 7, Grade 3/4): 0 n (%)
AE: Macular Oedema (Regimen 2A N = 7, Grade 3/4): 0 n (%)
AE: Malaise (Regimen 2A N = 7, Grade 3/4): 0 n (%)
AE: Mouth Haemorrhage (Regimen 2A N = 7, Grade 3/4): 0 n (%)
AE: Nausea (Regimen 2A N = 7, Grade 3/4): 0 n (%)
AE: Neutropenia/Neutrophil Count Decreased (Regimen 2A N = 7, Grade 3/4): 1 (14.3) n (%)
AE: Oedema (Regimen 2A N = 7, Grade 3/4): 0 n (%)
AE: Oedema Peripheral (Regimen 2A N = 7, Grade 3/4): 0 n (%)
AE: Oral Disorder (Regimen 2A N = 7, Grade 3/4): 0 n (%)
AE: Pain In Extremity (Regimen 2A N = 7, Grade 3/4): 0 n (%)
AE: Pancytopenia (Regimen 2A N = 7, Grade 3/4): 0 n (%)
AE: Pneumonia (Regimen 2A N = 7, Grade 3/4): 0 n (%)
AE: Pollakiuria (Regimen 2A N = 7, Grade 3/4): 0 n (%)
AE: Pyrexia (Regimen 2A N = 7, Grade 3/4): 0 n (%)
AE: Rash (Regimen 2A N = 7, Grade 3/4): 0 n (%)
AE: Rash Erythematous (Regimen 2A N = 7, Grade 3/4): 0 n (%)
AE: Rash Papular (Regimen 2A N = 7, Grade 3/4): 0 n (%)
AE: Rectal Haemorrhage (Regimen 2A N = 7, Grade 3/4): 0 n (%)
AE: Renal Failure (Regimen 2A N = 7, Grade 3/4): 0 n (%)
AE: Skin Exfoliation (Regimen 2A N = 7, Grade 3/4): 0 n (%)
AE: Stomatitis (Regimen 2A N = 7, Grade 3/4): 0 n (%)
AE: Subarachnoid Haemorrhage (Regimen 2A N = 7, Grade 3/4): 0 n (%)
AE: Thrombocytopenia/Platelet Count Decreased (Regimen 2A N = 7, Grade 3/4): 2 (28.6) n (%)
AE: Total (Regimen 2A N = 7, Grade 3/4): 3 (42.9) n (%)
AE: Tumour Lysis Syndrome (Regimen 2A N = 7, Grade 3/4): 1 (14.3) n (%)
AE: Vomiting (Regimen 2A N = 7, Grade 3/4): 0 n (%)
AE: Weight Decreased (Regimen 2A N = 7, Grade 3/4): 0 n (%)
AE: White Blood Cell Count Decreased (Regimen 2A N = 7, Grade 3/4): 1 (14.3) n (%)
AE: Abdominal Discomfort (Regimen 2C N = 8, All Grades): 0 n (%)
AE: Abdominal Pain (Regimen 2C N = 8, All Grades): 0 n (%)
AE: Abdominal Pain Upper (Regimen 2C N = 8, All Grades): 0 n (%)
AE: Amylase Increased (Regimen 2C N = 8, All Grades): 0 n (%)
AE: Anaemia (Regimen 2C N = 8, All Grades): 5 (62.5) n (%)
AE: Arthralgia (Regimen 2C N = 8, All Grades): 0 n (%)
AE: Asthenia (Regimen 2C N = 8, All Grades): 2 (25.0) n (%)
AE: Atrial Fibrillation (Regimen 2C N = 8, All Grades): 0 n (%)
AE: Atypical Pneumonia (Regimen 2C N = 8, All Grades): 0 n (%)
AE: Balanitis Candida (Regimen 2C N = 8, All Grades): 0 n (%)
AE: Blood Alkaline Phosphatase Increased (Regimen 2C N = 8, All Grades): 0 n (%)
AE: Blood Bilirubin Increased (Regimen 2C N = 8, All Grades): 0 n (%)
AE: Blood Creatinine Increased (Regimen 2C N = 8, All Grades): 1 (12.5) n (%)
AE: Blood Phosphorus Increased (Regimen 2C N = 8, All Grades): 0 n (%)
AE: Blood Uric Acid Increased (Regimen 2C N = 8, All Grades): 0 n (%)
AE: Bone Marrow Failure (Regimen 2C N = 8, All Grades): 0 n (%)
AE: C-Reactive Protein Increased (Regimen 2C N = 8, All Grades): 0 n (%)
AE: Cardiac Failure (Regimen 2C N = 8, All Grades): 0 n (%)
AE: Cellulitis (Regimen 2C N = 8, All Grades): 0 n (%)
AE: Chronic Graft Versus Host Disease (Regimen 2C N = 8, All Grades): 0 n (%)
AE: Conjunctival Haemorrhage (Regimen 2C N = 8, All Grades): 0 n (%)
AE: Constipation (Regimen 2C N = 8, All Grades): 1 (12.5) n (%)
AE: Cough (Regimen 2C N = 8, All Grades): 0 n (%)
AE: Cystitis Viral (Regimen 2C N = 8, All Grades): 0 n (%)
AE: Cytomegalovirus Infection (Regimen 2C N = 8, All Grades): 0 n (%)
AE: Decreased Appetite (Regimen 2C N = 8, All Grades): 4 (50.0) n (%)
AE: Diarrhoea (Regimen 2C N = 8, All Grades): 2 (25.0) n (%)
AE: Dyspepsia (Regimen 2C N = 8, All Grades): 0 n (%)
AE: Dyspnoea (Regimen 2C N = 8, All Grades): 0 n (%)
AE: Epistaxis (Regimen 2C N = 8, All Grades): 1 (12.5) n (%)
AE: Fatigue (Regimen 2C N = 8, All Grades): 2 (25.0) n (%)
AE: Febrile Neutropenia (Regimen 2C N = 8, All Grades): 3 (37.5) n (%)
AE: Gamma-Glutamyltransferase Increased (Regimen 2C N = 8, All Grades): 0 n (%)
AE: General Physical Health Deterioration (Regimen 2C N = 8, All Grades): 0 n (%)
AE: Gingival Bleeding (Regimen 2C N = 8, All Grades): 0 n (%)
AE: Graft Versus Host Disease (Regimen 2C N = 8, All Grades): 0 n (%)
AE: Haemoglobin Decreased (Regimen 2C N = 8, All Grades): 0 n (%)
AE: Headache (Regimen 2C N = 8, All Grades): 0 n (%)
AE: Hyperbilirubinaemia (Regimen 2C N = 8, All Grades): 0 n (%)
AE: Hyperglycaemia (Regimen 2C N = 8, All Grades): 0 n (%)
AE: Hyperkalaemia (Regimen 2C N = 8, All Grades): 0 n (%)
AE: Hyperphosphataemia (Regimen 2C N = 8, All Grades): 1 (12.5) n (%)
AE: Hypoalbuminaemia (Regimen 2C N = 8, All Grades): 0 n (%)
AE: Hypocalcaemia (Regimen 2C N = 8, All Grades): 0 n (%)
AE: Hypokalaemia (Regimen 2C N = 8, All Grades): 0 n (%)
AE: Hypomagnesaemia (Regimen 2C N = 8, All Grades): 0 n (%)
AE: Hyponatraemia (Regimen 2C N = 8, All Grades): 0 n (%)
AE: Hypophosphataemia (Regimen 2C N = 8, All Grades): 0 n (%)
AE: Hypotension (Regimen 2C N = 8, All Grades): 0 n (%)
AE: Infection (Regimen 2C N = 8, All Grades): 0 n (%)
AE: Infective Glossitis (Regimen 2C N = 8, All Grades): 1 (12.5) n (%)
AE: Iron Overload (Regimen 2C N = 8, All Grades): 0 n (%)
AE: Leukopenia (Regimen 2C N = 8, All Grades): 0 n (%)
AE: Lip Oedema (Regimen 2C N = 8, All Grades): 0 n (%)
AE: Lipase Increased (Regimen 2C N = 8, All Grades): 0 n (%)
AE: Macular Oedema (Regimen 2C N = 8, All Grades): 0 n (%)
AE: Malaise (Regimen 2C N = 8, All Grades): 0 n (%)
AE: Mouth Haemorrhage (Regimen 2C N = 8, All Grades): 0 n (%)
